Test results reported in EP0761658A1, “Azole-phenyl urea derivatives as ACAT inhibitors and their production” (NIHON NOHYAKU CO., LTD., priority 1995, dated 1997).

Experiments:
[1] = test system: acyl-CoA:cholesterol acyltransferase (ACAT); experiment: Inhibitory activity on acyl-CoA:cholesterol acyltransferase (ACAT), microsomal fraction of intestinal mucosa, [1-14C]oleyl-CoA incorporation into cholesterol esters; type: biochemical, white rabbit; details: compound concentration 0.01 µm; rabbit intestinal mucosa microsomes
Procedure: The enzyme used in the test was prepared according to the method of Heider et al. [J. Lipid Res. 24, 1127 (1983)]. A white rabbit was killed by blood-letting under anesthesia, after which its intestinal mucosa was collected and then homogenized, and microsomal fraction was obtained by stepwise centrifugation. The microsomal fraction was suspended in 0.154 M phosphate buffer (pH 7.4) and stored at -80°C until use.
ACAT activity was determined by a modification of the method of Helgerud et al. [J. Lipid Res. 22, 271 (1981)] by measuring radioactivity incorporated into cholesterol esters from [1-^14C]oleyl-CoA, as an indication. As to the ACAT-inhibitory activity of each compound to be tested, the inhibition rate was calculated by the following equation. Inhibition rate (%) =([ACAT activity of control group which was given solvent]-[ACAT activity of group treated with compound to be tested])/([ACAT activity of control group which was given solvent])x 100 [formula]

[2] = test system: rats fed on a high-cholesterol diet; experiment: Serum cholesterol lowering activity in rats fed on a high-cholesterol diet; type: in vivo, Male Sprague-Dawley rats; details: Rattus norvegicus, 96 h; total serum cholesterol; 30 mg per kg of body weight per day for 4 days, suspended in 0.5% carboxymethyl cellulose; blood 24 hours after last administration; read-out: Reduction rate (%)
Procedure: Male Sprague-Dawley rats of 6-week-old were divided into three groups. The first group (normal group) was fed an ordinary diet for 4 days. The second group (control group) was fed a high cholesterol diet (containing 1.0% cholesterol, 1.0% cholic acid and 8.5% coconut oil) for 4 days. The third group (treated group) was fed a high cholesterol diet and was treated with a compound for 4 days.
Simultaneously with the beginning of the above feeding, the compound was suspended in a 0.5% carboxymethyl cellulose solution and administered to the treated group, in a dose of 30 mg (in terms of the compound) per kg of body weight per day for 4 days. A 0.5% carboxymethyl cellulose solution was also administered to the normal group and the control group in the same manner as above.
After 24 hours of the last administration, blood was collected and the cholesterol concentration in serum was measured by an enzymatic method. The reduction rate of the total serum cholesterol concentration was calculated from values obtained for the three groups by the following equation. Choresterol reduction rate (%) =((A) - (B))/((A) - (C))x 100 [formula] wherein A: the serum cholesterol concentration of the control group. B: the serum cholesterol concentration of the treated group. C: the serum cholesterol concentration of the normal group.

Inhibition rate % [1]: 80.4%
Compound: CC(C)c1cccc(C(C)C)c1NC(=O)Nc1nc(-c2ccccc2)n(Cc2ccccc2)c1-c1ccccc1Cl [Compound 37, N-[1-Benzyl-5-(2-chlorophenyl)-2-phenylimidazol-4-yl]-N'-(2,6-diisopropylphenyl)urea]
inhibition in vivo at 30 mg/kg [2]: 59%
